Test results as given in US20260174860A1, “HYBRID COMPOUNDS OF SCLAREOL AND DOXORUBICIN, THEIR SYNTHESIS AND APPLICATION” (INSTITUTE FOR BIOLOGICAL RESEARCH "SINISA STANKOVIC" - …, priority 2023, published 2026).

What was measured:
[1] = Zetasizer measurement of size, polydispersity and zeta potential; type: physicochemical; conditions: 25° C., diluted 100 times with ultrapure water, mean of three
Method: The Malvern Zetasizer Nano ZS (Malvern Instruments, United Kingdom) was used to analyze the physico-chemical stability characteristics of conjugates. The measurement range was from 0.6 nm up to […]. The mean size of conjugates, the polydispersity index (PDI) and zeta potential were measured. All measurements were taken at a temperature of 25° C. and each sample was diluted 100 times with ultrapure water. The measurements were repeated three times, and the results were presented as the mean value. PDI is a parameter used to define the size range of particles. The term “polydispersity” (or “dispersity” as recommended by IUPAC) describes the degree of non-uniformity of a size distribution of particles. Zeta potential represents the surface charge of nanoparticles and indicates their long-term stability.

breast cancer cell lines = conditions: 0.1 μM DOX alone or combined with 50 μM SC; cited from earlier work
[2] = target: T1, P-glycoprotein activity in NCI-H460/R (Homo sapiens, UniProt P08183); assay: DOX and rhodamine 123 accumulation test, flow cytometry; type: cell-based
T1 construct: obtained by successive exposure of NCI-H460 cells to increasing concentrations of DOX; endogenous in cells; host or cells: NCI-H460/R (doxorubicin-selected from NCI-H460)
T1 sequence (P08183 whole entry): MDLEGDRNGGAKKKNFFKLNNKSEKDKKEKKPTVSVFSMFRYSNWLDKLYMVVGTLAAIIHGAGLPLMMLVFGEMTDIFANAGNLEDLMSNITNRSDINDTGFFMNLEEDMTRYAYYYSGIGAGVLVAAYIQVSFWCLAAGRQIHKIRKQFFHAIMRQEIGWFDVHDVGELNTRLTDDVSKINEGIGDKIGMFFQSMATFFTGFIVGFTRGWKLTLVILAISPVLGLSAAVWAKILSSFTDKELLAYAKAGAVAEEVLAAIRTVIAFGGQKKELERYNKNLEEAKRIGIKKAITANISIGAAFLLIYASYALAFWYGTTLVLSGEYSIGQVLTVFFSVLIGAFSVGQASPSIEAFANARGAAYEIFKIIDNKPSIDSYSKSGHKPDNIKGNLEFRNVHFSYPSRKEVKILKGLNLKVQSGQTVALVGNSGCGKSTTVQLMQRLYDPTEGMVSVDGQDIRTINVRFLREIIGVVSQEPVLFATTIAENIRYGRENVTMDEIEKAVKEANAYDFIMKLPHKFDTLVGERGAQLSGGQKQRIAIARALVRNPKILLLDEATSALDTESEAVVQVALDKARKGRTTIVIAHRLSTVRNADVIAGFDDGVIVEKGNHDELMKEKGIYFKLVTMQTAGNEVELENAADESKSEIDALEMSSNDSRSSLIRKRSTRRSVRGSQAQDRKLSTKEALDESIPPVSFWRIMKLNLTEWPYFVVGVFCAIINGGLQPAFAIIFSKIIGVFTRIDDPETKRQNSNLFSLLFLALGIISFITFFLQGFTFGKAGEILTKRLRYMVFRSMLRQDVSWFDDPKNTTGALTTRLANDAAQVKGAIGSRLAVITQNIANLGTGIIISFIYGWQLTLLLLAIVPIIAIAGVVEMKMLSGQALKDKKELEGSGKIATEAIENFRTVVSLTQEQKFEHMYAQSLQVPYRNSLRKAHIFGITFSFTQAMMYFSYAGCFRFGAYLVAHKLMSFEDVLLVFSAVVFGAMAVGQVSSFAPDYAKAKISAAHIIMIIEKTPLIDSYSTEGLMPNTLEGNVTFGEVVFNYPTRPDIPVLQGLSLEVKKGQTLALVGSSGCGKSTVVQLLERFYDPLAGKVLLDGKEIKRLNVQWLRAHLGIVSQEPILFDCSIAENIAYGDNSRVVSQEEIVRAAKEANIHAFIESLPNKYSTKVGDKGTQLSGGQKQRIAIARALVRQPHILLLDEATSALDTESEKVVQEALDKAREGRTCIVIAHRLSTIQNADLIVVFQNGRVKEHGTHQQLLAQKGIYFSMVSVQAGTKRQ
Method: (§1) • a) First, DOX accumulation test was performed on three glioblastoma cell lines, U87, U87-TxR, and U251. Cells were trypsinized and counted, and then 100,000 cells per sample were collected in a tube for flow cytometry and resuspended in 500 μL of culture medium. Cells were treated with 20 μM and 50 µM SC. Immediately after SC treatment, cells were treated with 20 μM DOX, and samples were incubated at 37° C. in a humid atmosphere with 5% CO2 for 60 min. After the accumulation period, the samples were centrifuged, washed twice with cold Phosphate Buffered Saline (PBS), and finally resuspended in 1 mL of PBS. The fluorescence of the samples was read on the FL2 (red channel) of a cytofluorimeter (Partec, Munster, Germany), and the results were analyzed with the software package Summit 4.3. • b) Secondly, DOX and rhodamine 123 accumulation test was performed on non-small cell lung carcinoma cell lines NCI-H460 and NCI-H460/R. Cells were trypsinized and counted, and then 100,000 cells per sample were collected in a tube for flow cytometry and resuspended in 500 μl of culture medium. Cells were treated with 50 μM SC. Immediately after treatment, 5 μM Rho123 was added to one group of samples and the other 20 μM DOX. […] The samples were analyzed using a flow cytometer, reading for rhodamine 123 on FL1 (green channel) and DOX on FL2 (red channel). […]

[3] = system: glioblastoma cell lines U87, U87-TxR and U251; assay: DOX accumulation test, flow cytometry; type: cell-based, human; conditions: 20 μM and 50 μM SC with 20 μM DOX, 60 min
Method: as §1

## N1-((25,3S,4S,6R)-3-hydroxy-2-methyl-6-(((1S,3S)-3,5,12-trihydroxy-3-(2-hydroxyacetyl)-10-methoxy-6,11-dioxo-1,2,3,4,6,11-hexahydrotetracen-1-yl)oxy)tetrahydro-2H-pyran-4-yl)-N4-(3-((4-((R,E)-3-hydroxy-5-((1R,2R,4aS,8aS)-2-hydroxy-2,5,5,8a-tetramethyldecahydronaphthalen-1-yl)-3-methylpent-1-en-1-yl)benzyl)amino)propyl) succinamide [CON1]
[1]
  Z-Average: 189.4 ± 9.7 nm·days

## COc1cccc2c1C(=O)c1c(O)c3c(c(O)c1C2=O)C[C@@](O)(C(=O)CO)C[C@@H]3O[C@H]1C[C@H](N)[C@H](O)[C@H](C)O1 [DOX, doxorubicin]
Breast cancer cell lines
  rate of cell growth: 76%

## C=C[C@](C)(O)CC[C@@H]1[C@@]2(C)CCCC(C)(C)[C@@H]2CC[C@@]1(C)O [SC, sclareol]
[2]; 50 μM SC with 20 μM DOX, 60 min
  accumulation of DOX: increased
[2]; 50 μM SC with rhodamine 123, 30 min
  accumulation of rhodamine 123 / P-glycoprotein activity: inhibition of P-glycoprotein activity
[3]
  accumulation of DOX: increase the accumulation of DOX
